According to patent publication US9115166B2, “Rebaudioside A derivative products and methods for making” (The Coca-Cola Company, priority 2008, dated 2015):
Marks after values point to notes of the source that are not given here.

How the values were obtained:
[1] = Sweetness potency of derivative products compared to sucrose at iso-sweetness levels (Example 1); conditions: in vivo
Source text: These rebaudioside A derivative products were characterized as having an intense sweetening potency. […] Thus, the rebaudioside A derivative products are suitable for use as sweeteners for sweetenable compositions.

[2] = Quality of sweetness: sensory attributes scored on a 15-point unstructured line scale; format: in vivo; set-up: key to Stale Flavor / Metallic Flavor / Mouth Numbing / Mouthburn / Stale Aftertaste / Metallic Aftertaste / Overall Aroma / Sweet Aromatic Aroma / Stale Aroma: scores on a 15-point unstructured line scale; conditions: mean score, 15-point line scale, two replications, room temperature; for Overall Aroma / Stale Aftertaste / Stale Aroma / Sweet Aromatic Aroma: more than 50% of responses zero; for Astringency / Bitterness / Bitterness Aftertaste / Black Licorice Aftertaste / Black Licorice Flavor / Cooling / Overall Aftertaste / Overall Flavor / Sweet Aromatic Aftertaste / Sweet Aromatic Flavor / Sweetness / Sweetness Aftertaste: same superscript letter = not significantly different (95%)
Description: The quality of sweetness of the rebaudioside A derivative products 1 (II), 2 (IV), 3 (III), and 4 (V) also was evaluated and compared to that of rebaudioside A, rebaudioside B, rebaudioside F, and sucrose at room temperature. For each attribute, the sweeteners received a score based on a 15-point unstructured line scale. […] A multiple comparison test, Fisher's LSD 5%, aided in the comparative analysis of the scores.

[3] = Sweetness intensity of a water sample of derivative product compared with a water sample of sucrose (Example 4); format: in vivo; conditions: in water; amount of sample by weight: 1 (II) 3.6 %, 2 (IV) 1.1 %, 3 (III) 9.7 %, 4 (V) 6 %
Description: The sweetness intensity of the foregoing rebaudioside A derivative products was analyzed by comparing the sweetness intensity of a water sample having a particular amount of sucrose with a second water sample having an identical amount of a rebaudioside A derivative product.

Compound	Metallic Aftertaste [2]	Metallic Flavor [2]	Mouth Numbing [2]	Mouthburn [2]	Stale Flavor [2]	Overall Aroma [2]	Stale Aftertaste [2]	Stale Aroma [2]	Sweet Aromatic Aroma [2]	Astringency [2]	Bitterness [2]	Bitterness Aftertaste [2]	Black Licorice Aftertaste [2]	Black Licorice Flavor [2]	Cooling [2]	Overall Aftertaste [2]	Overall Flavor [2]	Sweet Aromatic Aftertaste [2]	Sweet Aromatic Flavor [2]	Sweetness [2]	also measured
CC1(C(=O)O)CCCC2(C)C3CCC4(OC5OC(CO)C(O)C(OC6OC(CO)C(O)C(O)C6O)C5OC5OC(CO)C(O)C(O)C5O)CC3(CCC12)CC4(C)O [Derivative Product 3 (III), 13-[(2-O-β-D-glucopyranosyl-3-O-β-D-glucopyranosyl-β-D-glucopyranosyl)oxy]-16-hydroxy kauran-18-oic acid]	0.83	1.02	1.09	1.15	0.63	0.09	0.41	0.00	0.08	3.27^a	2.90^ab	1.75^abc	1.37^a	1.84^ab	0.57^b	5.72^ab	10.02^a	0.68^abc	0.77^ab	9.73^a	taste quality [1]: sweet clean taste similar to sugar; Sweetness Aftertaste [2]: 5.38^ab; Sweetness Intensity of Derivative Product (as compared to equivalent amount of sucrose) [3]: 190
rebaudioside B [Reb. B, reference compound]	0.47	0.82	0.54	0.97	0.92	0.28	0.63	0.26	0.00	2.79^bc	1.72^de	1.07^d	0.80^b	0.89^c	0.57^b	3.54^c	4.20^c	0.46^bcd	0.54^abc	3.55^c	Sweetness Aftertaste [2]: 3.11^c
OC[C@H]1O[C@@](CO)(O[C@H]2O[C@H](CO)[C@@H](O)[C@H](O)[C@H]2O)[C@@H](O)[C@@H]1O [Sucrose, sucrose, reference compound]	0.67	1.04	0.57	1.06	0.50	0.40	0.58	0.11	0.24	3.03^ab	1.47^e	0.97^d	0.26^c	0.13^d	0.38^bc	5.05^b	10.73^a	1.01^a	1.12^a	10.45^a	Sweetness Aftertaste [2]: 4.76^b
rebaudioside F [Reb. F, reference compound]	0.88	1.13	0.98	1.35	1.14	0.29	0.81	0.00	0.18	3.28^a	2.64^bc	1.70^bc	0.75^b	0.88^c	0.57^b	3.89^c	5.38^b	0.46^bcd	0.59^abc	4.98^b	Sweetness Aftertaste [2]: 3.34^c
